Laboratory results taken from US20180273538A1, “PYRROLO[2,3-d]PYRIMIDINE DERIVATIVES, A PROCESS FOR THEIR PREPARATION AND PHARMACEUTICAL COMPOSITIONS CONTAINING THEM” (LES LABORATOIRES SERVIER, priority 2015, published 2018).

The compounds below were run against T1, His-TEV-DYRK1A Kinase domain (aa127-485) (Homo sapiens, UniProt Q13627) (assay: Kinase ADP assay (ADP Hunter Plus)).
T1 construct: His-TEV-DYRK1A Kinase domain (aa127-485); His (N); TEV cleavage site (N)
Type: biochemical

Compared with Cc1nc(N2C[C@@H](C)O[C@@H](C)C2)c2c(-c3cc(N)nc(N)c3)c[nH]c2n1 [Example 126, 4-{4-[(2R,6S)-2,6-dimethylmorpholin-4-yl]-2-methyl-7H-pyrrolo[2,3-d]pyrimidin-5-yl}pyridine-2,6-diamine + 4-{4-[(2S,6R)-2,6-dimethylmorpholin-4-yl]-2-methyl-7H-pyrrolo[2,3-d]pyrimidin-5-yl}pyridine-2,6-diamine], Cc1nc(N2CCOC(C)C2)c2c(-c3cc(N)nc(N)c3)c[nH]c2n1 (centres unmarked) [Example 143, 4-[2-methyl-4-(2-methylmorpholin-4-yl)-7H-pyrrolo[2,3-d]pyrimidin-5-yl]pyridine-2,6-diamine] is 2.5-fold higher in IC50: 0.418 µM for the first, 1.06 µM for the second.

Going from Cc1nc(N2CCC3(CCC(C)CC3)C2)c2c(-c3ccnc(N)c3)c[nH]c2n1 (centres unmarked) [Example 102, 4-[2-methyl-4-(8-methyl-2-azaspiro[4.5]dec-2-yl)-7H-pyrrolo[2,3-d]pyrimidin-5-yl]pyridin-2-amine] to Cc1nc(N2CC3(CCCCC3)C2)c2c(-c3ccnc(N)c3)c[nH]c2n1 [Example 109, 4-[4-(2-azaspiro[3.5]non-2-yl)-2-methyl-7H-pyrrolo[2,3-d]pyrimidin-5-yl]pyridin-2-amine], the IC50 rises from 0.293 µM to 0.524 µM (1.8-fold). The first is the more potent here.

First: Cc1nc(N2CCn3ccnc3C2)c2c(-c3cc(N)nc(N)c3)c[nH]c2n1 [Example 141, 4-[4-(5,6-dihydroimidazo[1,2-a]pyrazin-7(8H)-yl)-2-methyl-7H-pyrrolo[2,3-d]pyrimidin-5-yl]pyridine-2,6-diamine]
Second: Cc1nc(N2CCn3ccnc3C2)c2c(-c3ccnc(N)c3)c[nH]c2n1 [Example 135, 4-[4-(5,6-dihydroimidazo[1,2-a]pyrazin-7(8H)-yl)-2-methyl-7H-pyrrolo[2,3-d]pyrimidin-5-yl]pyridin-2-amine]
The IC50 of the first is 4.6-fold higher: 0.417 µM for the first, 0.091 µM for the second.

Cc1nc(NCc2cc(C)on2)c2c(-c3ccncc3)c[nH]c2n1 [Example 46, 2-methyl-N-[(5-methyl-1,2-oxazol-3-yl)methyl]-5-(pyridin-4-yl)-7H-pyrrolo[2,3-d]pyrimidin-4-amine] and Cc1cc(-c2c[nH]c3nc(C)nc(NCc4cc(C)on4)c23)ccn1 [Example 47, 2-methyl-N-[(5-methyl-1,2-oxazol-3-yl)methyl]-5-(2-methylpyridin-4-yl)-7H-pyrrolo[2,3-d]pyrimidin-4-amine] are within 1.5-fold of each other in IC50: 0.369 µM for the first, 0.372 µM for the second.

First: Cc1nc(-c2ccc3c(c2)OC(F)(F)O3)c2c(-c3ccnc(N)n3)c[nH]c2n1 [Example 210, 4-[4-(2,2-difluoro-1,3-benzodioxol-5-yl)-2-methyl-7H-pyrrolo[2,3-d]pyrimidin-5-yl]pyrimidin-2-amine]
Second: C#Cc1nc(-c2ccc3c(c2)OCO3)c2c(-c3ccnc(N)c3)c[nH]c2n1 [Example 156, 4-[4-(1,3-benzodioxol-5-yl)-2-ethynyl-7H-pyrrolo[2,3-d]pyrimidin-5-yl]pyridin-2-amine]
The IC50 of the first is 1.7-fold higher: 0.05 µM for the first, 0.029 µM for the second.

Compared with Cc1nc([C@@H]2CCc3ccccc3C2)c2c(-c3ccnc(N)c3)c[nH]c2n1 [Example 190], Cc1nc(C2CCc3ccccc3C2)c2c(-c3ccnc(N)c3)c[nH]c2n1 (centres unmarked) [Example 188] is 6-fold lower in IC50: 0.419 µM for the first, 0.07 µM for the second.

First: Cc1nc(NCc2ccc(-c3ccccn3)s2)c2c(-c3ccnc(N)c3)c[nH]c2n1 [Example 87, 5-(2-aminopyridin-4-yl)-2-methyl-N-{[5-(pyridin-2-yl)thiophen-2-yl]methyl}-7H-pyrrolo[2,3-d]pyrimidin-4-amine]
Second: Cc1nc(NCCc2ccccn2)c2c(-c3ccnc(N)c3)c[nH]c2n1 [Example 124, 5-(2-aminopyridin-4-yl)-2-methyl-N-[2-(pyridin-2-yl)ethyl]-7H-pyrrolo[2,3-d]pyrimidin-4-amine]
The IC50 of the first is 6.6-fold higher: 1.94 µM for the first, 0.296 µM for the second. The second is the more potent here.

Compared with Cc1nc(-c2cccc(OCCCN3CCN(C)CC3)c2)c2c(-c3ccnc(N)c3)c[nH]c2n1 [Example 200], Cc1nc(-c2cccc(OCCN3CCCC3)c2)c2c(-c3ccnc(N)c3)c[nH]c2n1 [Example 202] is 5.3-fold higher in IC50: 0.027 µM for the first, 0.144 µM for the second.

COC1CCCN(c2nc(C)nc3[nH]cc(-c4cc(N)nc(N)c4)c23)C1 (centres unmarked) [Example 144, 4-[4-(3-methoxypiperidin-1-yl)-2-methyl-7H-pyrrolo[2,3-d]pyrimidin-5-yl]pyridine-2,6-diamine] and Cc1nc(N2CCc3nccnc3C2)c2c(-c3cc(N)nc(N)c3)c[nH]c2n1 [Example 142, 4-[4-(7,8-dihydropyrido[3,4-b]pyrazin-6(5H)-yl)-2-methyl-7H-pyrrolo[2,3-d]pyrimidin-5-yl]pyridine-2,6-diamine] are within 1.5-fold of each other in IC50: 0.545 µM for the first, 0.512 µM for the second.

COc1cccnc1C(C)Nc1nc(C)nc2[nH]cc(-c3ccnc(N)c3)c12 (centres unmarked) [Example 113, 5-(2-aminopyridin-4-yl)-N-[1-(3-methoxypyridin-2-yl)ethyl]-2-methyl-7H-pyrrolo[2,3-d]pyrimidin-4-amine] and Cc1nc(N[C@H](C)c2ccccc2F)c2c(-c3ccnc(N)c3)c[nH]c2n1 [Example 86, 5-(2-aminopyridin-4-yl)-N-[(1R)-1-(2-fluorophenyl)ethyl]-2-methyl-7H-pyrrolo[2,3-d]pyrimidin-4-amine] are within 1.5-fold of each other in IC50: 0.114 µM for the first, 0.121 µM for the second.

Cc1nc(NC(C)c2ccccc2)c2c(-c3ccnc(N)c3)c[nH]c2n1 (centres unmarked) [Example 49, 5-(2-aminopyridin-4-yl)-2-methyl-N-(1-phenylethyl)-7H-pyrrolo[2,3-d]pyrimidin-4-amine] and Cc1nc(N[C@@H](C)c2ccccc2)c2c(-c3ccnc(N)c3)c[nH]c2n1 [Example 67, 5-(2-aminopyridin-4-yl)-2-methyl-N-[(1S)-1-phenylethyl]-7H-pyrrolo[2,3-d]pyrimidin-4-amine] are within 1.5-fold of each other in IC50: 0.127 µM for the first, 0.094 µM for the second.

Cc1nc(-c2cc(F)cc(F)c2)c2c(-c3ccnc(N)c3)c[nH]c2n1 [Example 180] and Cc1nc(N(C)Cc2c(F)cccc2F)c2c(-c3ccnc(N)c3)c[nH]c2n1 [Example 120, 5-(2-aminopyridin-4-yl)-N-(2,6-diflurobenzyl)-N,2-dimethyl-7H-pyrrolo[2,3-d]pyrimidin-4-amine] are within 1.5-fold of each other in IC50: 0.079 µM for the first, 0.115 µM for the second.

Going from Cc1nc(NCc2cc(Cl)ccc2Cl)c2c(-c3ccnc(N)c3)c[nH]c2n1 [Example 92, 5-(2-aminopyridin-4-yl)-N-(2,5-dichlorobenzyl)-2-methyl-7H-pyrrolo[2,3-d]pyrimidin-4-amine] to N#Cc1nc(NCc2c(F)cccc2F)c2c(-c3ccnc(N)c3)c[nH]c2n1 [Example 157, 5-(2-aminopyridin-4-yl)-4-[(2,6-difluorobenzyl)amino]-7H-pyrrolo[2,3-d]pyrimidine-2-carbonitrile], the IC50 rises from 0.087 µM to 0.26 µM (3-fold). The first is the more potent here.

Going from Cc1nc(-c2ccc(CN3CCCC3)cc2)c2c(-c3ccnc(N)c3)c[nH]c2n1 [Example 165] to Cc1nc(OCc2ccncc2)c2c(-c3ccnc(N)c3)c[nH]c2n1 [Example 23, 4-[2-methyl-4-(pyridin-4-ylmethoxy)-7H-pyrrolo[2,3-d]pyrimidin-5-yl]pyridin-2-amine], the IC50 falls from 0.301 µM to 0.015 µM (20-fold). The second is the more potent here.

First: Cc1nc(N[C@@H]2CCCc3ccccc32)c2c(-c3ccnc(N)c3)c[nH]c2n1 [Example 91, 5-(2-aminopyridin-4-yl)-2-methyl-N-[(1R)-1,2,3,4-tetrahydronaphthalen-1-yl]-7H-pyrrolo[2,3-d]pyrimidin-4-amine]
Second: Cc1nc(N[C@H]2CCc3ccccc32)c2c(-c3ccnc(N)c3)c[nH]c2n1 [Example 77, 5-(2-aminopyridin-4-yl)-N-[(1S)-2,3-dihydro-1H-inden-1-yl]-2-methyl-7H-pyrrolo[2,3-d]pyrimidin-4-amine]
The IC50 of the first is 1.5-fold lower: 0.038 µM for the first, 0.057 µM for the second. The first is the more potent here.

Compared with Cc1nc(N2CCc3nccnc3C2)c2c(-c3ccnc(N)c3)c[nH]c2n1 [Example 136, 4-[4-(7,8-dihydropyrido[3,4-b]pyrazin-6(5H)-yl)-2-methyl-7H-pyrrolo[2,3-d]primidin-5-yl]pyridin-2-amine], Cc1nc(N2CC[C@H]3CCCC[C@H]3C2)c2c(-c3ccnc(N)c3)c[nH]c2n1 [Example 110] is 3.5-fold lower in IC50: 0.169 µM for the first, 0.048 µM for the second. The second is the more potent here.

Compared with Cc1nc(NCc2c(F)cccc2F)c2c(-c3cc(N)ncn3)c[nH]c2n1 [Example 212, 5-(6-aminopyrimidin-4-yl)-N-(2,6-difluorobenzyl)-2-methyl-7H-pyrrolo[2,3-d]pyrimidin-4-amine], Cc1nc(NCCC(F)(F)F)c2c(-c3ccnc(N)c3)c[nH]c2n1 [Example 100, 5-(2-aminopyridin-4-yl)-2-methyl-N-(3,3,3-trifluoropropyl)-7H-pyrrolo[2,3-d]pyrimidin-4-amine] is 18-fold higher in IC50: 0.009 µM for the first, 0.161 µM for the second.

Cc1nc(NCc2ccccc2)c2c(-c3ccncc3)c[nH]c2n1 [Example 42, N-benzyl-2-methyl-5-(pyridin-4-yl)-7H-pyrrolo[2,3-d]pyrimidin-4-amine] and Cc1nc(NCc2ccsc2)c2c(-c3ccncc3)c[nH]c2n1 [Example 44, 2-methyl-5-(pyridin-4-yl)-N-(thiophen-3-ylmethyl)-7H-pyrrolo[2,3-d]pyrimidin-4-amine] are within 1.5-fold of each other in IC50: 0.233 µM for the first, 0.249 µM for the second.

N#Cc1cc(-c2ccc3c(c2)OCO3)c2c(-c3ccnc(N)c3)c[nH]c2n1 [Example 223, 3-(2-aminopyridin-4-yl)-4-(1,3-benzodioxol-5-yl)-1H-pyrrolo[2,3-b]pyridine-6-carbonitrile] and Cc1cc(-c2ccc3c(c2)N(C)CCO3)c2c(-c3ccnc(N)c3)c[nH]c2n1 [Example 225, 4-[6-methyl-4-(4-methyl-3,4-dihydro-2H-1,4-benzoxazin-6-yl)-1H-pyrrolo[2,3-b]pyridin-3-yl]pyridin-2-amine] are within 1.5-fold of each other in IC50: 0.043 µM for the first, 0.037 µM for the second.

First: Cc1nc(N[C@H](C)c2ccccc2)c2c(-c3ccnc(N)c3)c[nH]c2n1 [Example 68, 5-(2-aminopyridin-4-yl)-2-methyl-N-[(1R)-1-phenylethyl]-7H-pyrrolo[2,3-d]pyrimidin-4-amine]
Second: Cc1nc(COc2ccccc2C(F)(F)F)c2c(-c3ccnc(N)c3)c[nH]c2n1 [Example 193, 4-(2-methyl-4-{[2-(trifluoromethyl)phenoxy]methyl}-7H-pyrrolo[2,3-d]pyrimidin-5-yl)pyridin-2-amine]
The IC50 of the first is 2-fold lower: 0.059 µM for the first, 0.116 µM for the second. The first is the more potent here.

For C#Cc1nc(-c2ccc3c(c2)OCO3)c2c(-c3cc(N)nc(N)c3)c[nH]c2n1 [Example 155, 4-[4-(1,3-benzodioxol-5-yl)-2-ethynyl-7H-pyrrolo[2,3-d]pyrimidin-5-yl]pyridine-2,6-diamine], the IC50 was 0.024 µM.
